pEC50: −log10 of the molar value. Read-outs that look alike come from different tables or passages of the source.
Experiments:
[1] = system: MDCK cells co-expressing GFP-K-RASG12V and mCherry-CAAX; experiment: Cytotoxicity in mislocalization screen (death of all cells in well); settings: drug caused death of all cells in well at 30 μM
mGFP-K-RASG12V = mGFP-K-RASG12V (Homo sapiens (Human), UniProt P01116, G12V); experiment: K-Ras mislocalization assay (confocal microscopy, Manders coefficient); type: cell-based; set-up: key to Emax: Manders coefficient: fraction of mCherry-CAAX co-localizing with GFP-K-Ras; settings: for Emax: maximal effect, Manders coefficient; for Emax / pEC50 / IC50: MDCK cells; for Emax / pEC50: 48 h; for pEC50: batch 4 compounds, title calls it IC50, read-out: EC50; for IC50: 48 h treatment, read-out: IC50 (μM), KRASG12V mislocalization
Method in brief: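 MDCK cells stably co-expressing mGFP-K-RASG12V and mCherry-CAAX (endomembrane marker) treated with compound or 0.1% DMSO for 48 h, fixed in 4% paraformaldehyde, imaged by confocal microscopy. Mislocalization quantified as the fraction of mCherry-CAAX co-localizing with mGFP-K-RASG12V (Manders coefficient) after 8-bit thresholding.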

Emax (mGFP-K-RASG12V) | pEC50 (mGFP-K-RASG12V) | IC50 (mGFP-K-RASG12V) [µM] | SMILES | Cytotoxic at 30 μM [1] | Emax (mGFP-K-RASG12V; listed as 12i) | fold potency loss / decreased potency (mGFP-K-RASG12V; versus 12f (NY0244)) [fold] | IC50 (mGFP-K-RASG12V; listed as 20) [µM] | Emax (mGFP-K-RASG12V; listed as 20)
0.452 | – | – | C[C@@H](NCCN1c2ccccc2CCc2ccccc21)c1ccccc1 [NY0553, (R)-2-(10,11-dihydro-5H-dibenzo[b,f]azepin-5-yl)-N-(1-phenylethyl)ethan-1-amine] | No | – | – | – | –
0.327 | 5.92 | – | COC(=O)[C@@H](c1ccccc1)N(CC=C(c1ccccc1)c1ccccc1)C(=O)NC(C)(C)C [NY0554, methyl (R)-2-(3-(tert-butyl)-1-(3,3-diphenylallyl)ureido)-2-phenylacetate] | Yes (even | – | – | – | –
0.332 | 5.36 | – | O=C(O)[C@H](NCC=C(c1ccccc1)c1ccccc1)c1ccccc1 [NY0555, (R)-2-((3,3-diphenylallyl)amino)-2-phenylacetic acid] | No | – | – | – | –
0.732 | – | – | CN1CCN(C(=O)[C@H](NCC=C(c2ccccc2)c2ccccc2)c2ccccc2)CC1 [NY0557, (R)-2-((3,3-diphenylallyl)amino)-1-(4-methylpiperazin-1-yl)-2-phenylethan-1-one] | No | – | – | – | –
0.718 | 5.23 | – | COC(=O)[C@H](CC(C)C)NC(=O)[C@H](NCC=C(c1ccccc1)c1ccccc1)c1ccccc1 [NY0566, methyl ((R)-2-((3,3-diphenylallyl)amino)-2-phenylacetyl)-L-leucinate] | No | – | – | – | –
0.364 | – | – | CC(=O)NNC(=O)[C@H](NCC=C(c1ccccc1)c1ccccc1)c1ccccc1 [NY0568, (R)-N′-acetyl-2-((3,3-diphenylallyl)amino)-2-phenylacetohydrazide] | No | – | – | – | –
0.321 | – | – | NC(=O)[C@H](NCC=C(c1ccccc1)c1ccccc1)c1ccccc1 [NY0569, (R)-2-((3,3-diphenylallyl)amino)-2-phenylacetamide] | No | – | – | – | –
0.397 | – | – | Cc1nnc([C@H](NCC=C(c2ccccc2)c2ccccc2)c2ccccc2)o1 [NY0570, (R)-N-((5-methyl-1,3,4-oxadiazol-2-yl)(phenyl)methyl)-3,3-diphenylprop-2-en-1-amine] | No | – | – | – | –
0.565 | – | – | C[C@@H](NCC(=O)N1c2ccccc2Sc2ccccc21)c1ccccc1 [NY0572, (R)-1-(10H-phenothiazin-10-yl)-2-((1-phenylethyl)amino)ethan-1-one] | No | – | – | – | –
0.733 | 5.76 | – | C[C@@H](NCC(=O)N1c2ccccc2Sc2ccccc21)c1ccc(F)cc1 [NY0573, (R)-2-((1-(4-fluorophenyl)ethyl)amino)-1-(10H-phenothiazin-10-yl)ethan-1-one] | No | – | – | – | –
0.842 | 5.32 | – | C[C@@H](NCCN1c2ccccc2Sc2ccccc21)c1ccccc1 [NY0574, (R)-N-(2-(10H-phenothiazin-10-yl)ethyl)-1-phenylethan-1-amine] | No | – | – | – | –
0.484 | 5.37 | – | C[C@@H](NCCN1c2ccccc2Sc2ccccc21)c1ccc(F)cc1 [NY0575, (R)-N-(2-(10H-phenothiazin-10-yl)ethyl)-1-(4-fluorophenyl)ethan-1-amine] | No | – | – | – | –
0.725 | 5.41 | – | C[C@@H](NCC(=O)N1c2ccccc2CCc2ccccc21)c1ccc(F)cc1 [NY0583, (R)-1-(10,11-dihydro-5H-dibenzo[b,f]azepin-5-yl)-2-((1-(4-fluorophenyl)ethyl)amino)ethan-1-one] | No | – | – | – | –
0.697 | 5.16 | – | C[C@@H](NCC(=O)N1c2ccccc2CCc2ccccc21)c1ccccc1 [NY0584, (R)-1-(10,11-dihydro-5H-dibenzo[b,f]azepin-5-yl)-2-((1-phenylethyl)amino)ethan-1-one] | No | – | – | – | –
0.827 | 5.74 | – | COc1ccc([C@@H](C)N(CC=C(c2ccccc2)c2ccccc2)CCN2CCN(C(=O)NC(C)(C)C)CC2)cc1 [NY0587, (R)-N-(tert-butyl)-4-(2-((3,3-diphenylallyl)(1-(4-methoxyphenyl)ethyl)amino)ethyl) piperazine-1-carboxamide] | No | – | – | – | –
0.895 | 5.66 | – | CCN1CCN(CCN(CC=C(c2ccccc2)c2ccccc2)[C@H](C)c2ccc(OC)cc2)CC1 [NY0589, (R)-N-(2-(4-ethylpiperazin-1-yl)ethyl)-N-(1-(4-methoxyphenyl)ethyl)-3,3-diphenylprop-2-en-1-amine] | Yes | – | – | – | –
0.825 | – | – | COc1ccc([C@@H](C)N(CC=C(c2ccccc2)c2ccccc2)CCN2CCN(C(=O)C(C)F)CC2)cc1 (stereo partly drawn) [NY0591, 1-(4-(2-((3,3-diphenylallyl)((R)-1-(4-methoxyphenyl)ethyl)amino)ethyl)piperazin-1-yl)-2-fluoropropan-1-one] | No | – | – | – | –
0.685 | 5.25 | – | C(CN(CCN1CCCC1)[C@@H]1C[C@H]1c1ccccc1)=C(c1ccccc1)c1ccccc1 [NY0592, (1R,2S)-N-(3,3-diphenylallyl)-2-phenyl-N-(2-(pyrrolidin-1-yl)ethyl)cyclopropan-1-amine] | Yes | – | – | – | –
0.75 | 5.49 | – | CCCN1CCN(CCN(CC=C(c2ccccc2)c2ccccc2)[C@H](C)c2ccc(OC)cc2)CC1 [NY0594, (R)-N-(2-(4-propylpiperazin-1-yl)ethyl)-N-(1-(4-methoxyphenyl)ethyl)-3,3-diphenylprop-2-en-1-amine] | Yes | – | – | – | –
0.713 | – | 0.42 | C(CN(CC=C(c1ccccc1)c1ccccc1)[C@@H]1C[C@H]1c1ccccc1)=C(c1ccccc1)c1ccccc1 [NY022601, (1R,2S)-N,N-bis(3,3-diphenylallyl)-2-phenylcyclopropanamine] | No | – | – | – | –
0.637 | – | 0.16 | C(CN[C@@H]1C[C@H]1c1ccccc1)=C(c1ccccc1)c1ccccc1 [NY022602, (1R,2S)-N-(3,3-diphenylallyl)-2-phenylcyclopropanamine] | No | – | – | – | –
0.494 | – | – | C[C@@H](CN(CC=C(c1ccccc1)c1ccccc1)CC=C(c1ccccc1)c1ccccc1)c1ccccc1 [NY022701, (R)-N-(3,3-diphenylallyl)-3,3-diphenyl-N-(2-phenylpropyl)prop-2-en-1-amine] | No | – | – | – | –
0.608 | – | 16.9 | C[C@@H](CNCC=C(c1ccccc1)c1ccccc1)c1ccccc1 [NY022702, (R)-3,3-diphenyl-N-(2-phenylpropyl)prop-2-en-1-amine] | No | – | – | – | –
0.778 | – | 1.46 | C(CN(CC=C(c1ccccc1)c1ccccc1)C1(c2ccccc2)CC1)=C(c1ccccc1)c1ccccc1 [NY040401, N,N-bis(3,3-diphenylallyl)-1-phenylcyclopropanamine] | No | – | – | – | –
0.424 | 5.05 | – | COC(=O)[C@@H](c1ccccc1)N(CC=C(c1ccccc1)c1ccccc1)CC=C(c1ccccc1)c1ccccc1 [NY055101, methyl (R)-2-(bis(3,3-diphenylallyl)amino)-2-phenylacetate] | Yes | – | – | – | –
0.424 | – | – | COC(=O)[C@H](NCC=C(c1ccccc1)c1ccccc1)c1ccccc1 [NY055102, Methyl (R)-2-((3,3-diphenylallyl)amino)-2-phenylacetate] | No | – | – | – | –
0.452 | – | 0.553 | COc1ccc([C@@H](C)N(CC=C(c2ccccc2)c2ccccc2)C(=O)CN2CCCC2)cc1 [PW124, (R)-N-(3,3-diphenylallyl)-N-(1-(4-methoxyphenyl)ethyl)-2-(pyrrolidin-1-yl)acetamide] | Yes | – | – | – | –
0.412 | – | 2.19 | COc1ccc([C@@H](C)N(CC=C(c2ccccc2)c2ccccc2)C(=O)CN2CCC(O)CC2)cc1 [PW126, (R)-N-(3,3-diphenylallyl)-2-(4-hydroxypiperidin-1-yl)-N-(1-(4-methoxyphenyl)ethyl)acetamide] | Yes | – | – | – | –
0.572 | – | 4.8 | O=C(c1ccc(F)cc1)N(CC=C(c1ccccc1)c1ccccc1)CCN1CCCC1 [PW276, N-(3,3-diphenylallyl)-4-fluoro-N-(2-(pyrrolidin-1-yl)ethyl)benzamide] | Yes | – | – | – | –

SMILES | Emax (mGFP-K-RASG12V) | pEC50 (mGFP-K-RASG12V) | IC50 (mGFP-K-RASG12V) [µM] | Cytotoxic at 30 μM [1] | Emax (mGFP-K-RASG12V; listed as 12i) | fold potency loss / decreased potency (mGFP-K-RASG12V; versus 12f (NY0244)) [fold] | IC50 (mGFP-K-RASG12V; listed as 20) [µM] | Emax (mGFP-K-RASG12V; listed as 20)
COc1ccc([C@@H](C)N(CC=C(c2ccccc2)c2ccccc2)CCN2CCC2)cc1 [NY0593, (R)-N-(2-(azetidin-1-yl)ethyl)-N-(1-(4-methoxyphenyl)ethyl)-3,3-diphenylprop-2-en-1-amine] | 0.694 | 6.31 | 0.5 | Yes | 0.69 ± 0.02 | 5 | – | –
COc1ccc([C@@H](C)N(CC=C(c2ccccc2)c2ccccc2)C(=O)CN2CCN(C)CC2)cc1 [PW125, (R)-N-(3,3-diphenylallyl)-N-(1-(4-methoxyphenyl)ethyl)-2-(4-methylpiperazin-1-yl)acetamide] | 0.514 | – | 7.09 | Yes | – | – | 7.1 | 0.51 ± 0.02

Source: US12043602B2, “Fendiline derivatives” (The Board of Regents of the University of Texas System, priority 2019, dated 2024)
